In assay [1] the test system is MEFs. Kind of assay: Metabolomics (TCA cycle, NAD/NADH). In kind it is cell-based, mouse. The procedure: Metabolomics. MEFs were treated with MASM7 and MFI8. Cells were harvested using a cell scraper and centrifuged at 1200 rpm in 4° C. for 3 min. Each cell pellet sample was suspended into 250 to 700 μL of 80% aqueous methanol in an Eppendorf tube. The samples were vortex mixed for 15 s and sonicated in an ice-water bath for 5 min, followed by centrifugal clarification at 15,000 rpm and 5° C. in an Eppendorf 5424R centrifuge. The clear supernatants were collected. A standard stock solution of TCA cycle carboxylic acids, NAD and NADH was prepared in 80% methanol as S1. This standard solution S1 was serially diluted 1 to 4 (v/v) with the same solvent to make standard solutions S2 to S10. 20 μL of each standard solution and an aliquot of the clear supernatant from each cell was mixed with 20 μL of an internal standard solution containing 9 ^13C- or deuterium labeled analogues of the TCA cycle carboxylic acids (except isocitric acid), 20 μL of 200 mM 3-NPH solution and 20 μL of 150 mM of EDC solution. The mixtures were allowed to react at 30° C. for 30 min. After reaction, 120 μL of water was added to each solution. 10 μL of the resultant solutions was injected into a C18 UPLC column to quantitate the TCA cycle carboxylic acids by UPLC-MRM/MS with (−) ion detection, according to the procedure we described in a publication.

The subject of the next assay is MFN1 and MFN2. Kind of assay: MFN1 and MFN2 gene expression and protein levels. In kind it is cell-based. The procedure:
Western blot. Western blots were performed from whole cell lysates (WCL) prepared in lysis buffer containing 50 mM Tris-HCl pH 7.5, 1% Triton X-100, 150 mM NaCl, 5 mM MgCl2, 1 mM EGTA and 10% glycerol in the presence of protease inhibitor cocktail (Roche).
Analysis of mitochondrial biogenesis-related genes by q-PCR. Total RNA was extracted by using RNeasy Mini Kit (Qiagen) followed by cDNA synthesis using the SuperScript IV VILO Master Mix (Thermo Scientific), both performed according to the manufacturer's protocol. q-PCR was performed using the following primers: […]
For the q-PCR reaction, Power SYBR Green master mix (Thermo Scientific) was used according to the manufacturer's instructions. Briefly, each reaction consisted of 10 ng cDNA, 5 μL Power SYBR Green master mix, 200 nM primers (forward and reverse), and RNase-free water up to 10 μL. q-PCR was performed on the ViiA 7 Real-Time PCR System (Thermo Scientific) with the following cycle parameter: 95° C. for 10 min, 40 cycles of 95° C. for 15 s, and 60° C. for 1 min. q-PCR products were analyzed by melting curves for unspecific products or primer dimer formation.

The subject of a further assay is cells. The assay can be described thus: Cell death assay (Annexin V / PI). It counts as cell-based. Here is the method: Cell death assay. Cells (2×10^5 cells/well) were seeded in a 6-well plate and treated with the indicated drugs for 6 hours. Cells were dissociated using Accutase (Thermo Fisher; Cat. #00-4555-56) in order to avoid accidental exposure of phosphatidylserine on the outer plasma membrane. Cell death was evaluated with Dead Cell Apoptosis Kit with Annexin V Alexa Fluor™ 488 & Propidium Iodide (Thermo Fisher; Cat. #V13241) according to manufacturer's protocol. Data was acquired by BD LSRII flow cytometer system using BD FACSDiva software. Data was analyzed by FlowJo (BD).

In a further assay the test system is caspase-3/7 in MEFs. The assay can be described thus: Caspase-3/7 activation assay. In kind it is cell-based, mouse. Here is the method:
(§1) Caspase-3/7 activation assay. Cells (5×10^3 cells/well) were seeded in a 96-well white plate and treated with MASM7, MFI8. Caspase 3/7 activation was measured after 6 hr by addition of the Caspase-Glo 3/7 reagent according to the manufacturer's protocol (Promega). Luminescence was detected by a F200 PRO microplate reader (TECAN). Caspase assays were performed in at least triplicate and the data normalized to vehicle-treated control wells. Dilutions of MASM7 or MFI8 were performed using a TECAN D300e Digital Dispenser from 10 mM stocks.

For assay [2], the system named is U2OS cells. Kind of assay: DNA damage, γH2AX immunofluorescence. It counts as cell-based. The procedure:
Immunofluorescent analysis and microscopy. Cells were treated with MASM7, MFI8 and or Q-VD-OPh at ~70% confluence for 6 h. After treatments, cells were washed with PBS and fixed with 4% PFA for 15 min. Then cells were permeabilized with 0.1% Triton X-100 in PBS for 10 min. Cells were blocked with 5% BSA in PBS-T and incubated overnight with primary antibodies as indicated; γH2AX (Sigma; 05-636, 1:100 dilution). After incubation with primary antibodies, cells were washed with PBS and incubated with the appropriate mouse secondary antibody (ThermoFisher Scientific; A-11001) in the blocking solution. After PBS washes, coverslips were dipped in water and mounted on glass slides using Vectashield containing DAPI (Vector laboratories). Images were taken with Leica SP5 inverted confocal microscope. Data were analyzed with ImageJ.

Another assay concerns MOLM13 cells. The assay can be described thus: Caspase 3/7 activation with AMG-176. It counts as cell-based. To be noted: increasing concentrations of AMG-176 and MFI8. The procedure: as §1
In assay [3] the test system is MEFs. The assay can be described thus: Mitochondrial membrane potential (TMRE). It counts as cell-based, mouse. The procedure: Mitochondrial depolarization assay (mtΔΨ). MEFs (10^4 cells/well) were seeded in a 96-well black plate and treated with MASM7 or MFI8 for 6 hrs. Following treatments, cells were stained with 250 nM TMRE (Sigma; Cat. 87917) for 20 min at 37° C. Subsequently, cells were washed with thrice with PBS. Fluorescence intensity was detected by a M100 microplate reader (TECAN, Ex: 540 nm/Em: 579 nm).

Assay [4] concerns U2OS cells. The assay can be described thus: Mitochondrial fusion in U2OS cells. It counts as cell-based. Here is the method:
Measurement of mitochondrial aspect ratio (Mito AR). Images that depict stained mitochondria with mitotracker green were analyzed using FIJI We measured for each mitochondrion its length and width. Then, we divided the length by the width for each mitochondrion to get its mitochondrial aspect ratio. >200 mitochondria were measured per treatment.

For assay [5], the system named is U2OS cells. Kind of assay: Minority MOMP imaging. It counts as cell-based. To be noted: U2OS cells expressing CytoGFP and MitoCherry, 3 h. The procedure:
Minority MOMP. U2OS cells (100,000) were seeded onto glass coverslips and transfected with 250 ng each of CytoGFP and Mito-mCherry as previously described 39. 16 h after transfection, cells were treated with compounds for 3 h and then fixed in 4% paraformaldehyde. Cells were imaged on a Zeiss LSM880 with Airyscan using a 63×1.4 NA objective. Subsequent to acquisition, images were processed using the Airyscan processing function in ZEN software. Minority MOMP was quantified by manually scoring the co-localisation of CytoGFP and mito-mCherry.

The structures appear in SMILES notation.

The results in this text go back to patent US20260274810A1, “NOVEL MITOFUSIN INHIBITORS” (ALBERT EINSTEIN COLLEGE OF MEDICINE, priority 2023, published 2026).

Regarding `Cc1cccc(NC(C)c2cc(Cl)ccc2O)c1C` (stereo not shown) [MFI8], the “metabolites of the TCA cycle” value with MEFs [1] is “markedly reduced several metabolites such as malate, oxaloacetate, and α-ketoglutarate”. Moreover, the “total NAD+/NADH ratio” value with MEFs [1] is on record as “decreased the total NAD^+/NADH ratio”. In addition, the “MFN1 and MFN2 gene expression and protein levels” value in the assay with MFN1 and MFN2 is listed as “neither MASM7 nor MFI8 altered”. Moreover, the “sensitization to BV6-induced cell death” value with cells (combined with BV6) is reported as “potentiated the capacity of BV6 to induce cell death”; with cells (deletion of MFN1/2 and APAF), “abolished the capacity of MFI8 to sensitize cells to BV6 treatment”. Besides, the “percentage of dead cells” value with cells (upon caspase 3/7 activation) is reported as “did not increase the percentage of dead cells”. Moreover, the caspase-3/7 activity result in the assay on caspase-3/7 in MEFs (6 hr) is “concentration-responsively increased caspase-3/7 activity”; in the assay on caspase-3/7 in MEFs (deletion of MFN1/MFN2) it was “impaired the capacity of MFI8 to increase caspase-3/7 activity”. Besides, in the assay on caspase-3/7 in MEFs (deletion of APAF-1), the “caspase 3/7 activity” value is listed as “detrimental for the capacity of MFI8 to increase caspase 3/7 activity”. Besides, the DNA damage result with U2OS cells [2] (U2OS cells) is given as “induced DNA damage in U2OS cells”; with U2OS cells [2] (U2OS, co-treatment with pan-caspase inhibitor Q-VD-OPh), “abolished the capacity of the latter to induce DNA damage”. Also, the “caspase 3/7 activation in combination with AMG-176” value in the assay on MOLM13 cells was “sensitizes cells to caspase activation in response to BH3 mimetic (MCL-1 inhibitor) AMG-176 treatment”. The mitochondrial membrane potential result is “significantly decreased mitochondrial membrane potential” in the assay on MEFs [3] (MFN1/MFN2 DKO MEFs reconstituted with WT MFN2) and “concentration responsively decreased mitochondrial membrane potential” in the assay on MEFs [3] (WT MEFs, 6 hrs). Further, in the assay on U2OS cells [4], the mitochondrial fusion result is “inhibited mitochondrial fusion in U2OS cells”. In the assay on U2OS cells [5], the MOMP entry is listed as “induced MOMP, albeit at modest levels”.
